Assay results published in patent US10232013B2, “Use of an antimicrobial peptide TP4 in treating a cancer” (Academia Sinica, priority 2016, dated 2019).
Marks after values point to notes of the source that are not given here. Where no end group is shown, it is not given here.

What was measured:
[1] = MTS cell viability assay, HDF; assay type: cell-based; settings: human, HDF dermal fibroblasts, mean±SD, read-out: Cellular toxicity (cell viability), MTS assay
Description: (§1) Cell-lines used in this study were purchased from the Bioresource Collection and Research Center (BCRC) in and the cells were cultured by the standard cell culture procedures and conditions provided by the BCRC. MB231 (BCRC 60425), MB453 (BCRC 60429), and HDF cells were cultured as previously described by Ting et al. MCF7 […] cells were maintained in α-MEM medium (ThermoFisher Scientific) supplemented with 2 mM L-glutamine, 10% FBS, 0.1 mM non-essential amino acids, 1 mM sodium pyruvate, and antibiotics (100 U mL^−1 penicillin G and […] streptomycin). M10 (BCRC 60197) cells were maintained in α-MEM medium (ThermoFisher Scientific) supplemented with 10% FBS and antibiotics. With the exception of MB231 and MB453, all cells were cultured at 37° C. with 5% CO2. For the cell viability and transfection assay, 1×10^4 cells [5×10^3 M10 cells were seeded and cultured for 48 h to allow the cells sufficient time for attachment] were seeded into the wells of a 96-well plate and cultured overnight. For the transfection assays, cells were transfected with 0.1-0.4 μg FOSB/FOSAB expression plasmid (Origene Technology Inc.) and cell viability was determined after 72 h. The transfection efficiencies (number of cells expressing eGFP/all cells) of the MB231 transfection assays were determined by observing ten randomly selected fields (from three independent transfections) of control GFP plasmid transfections under an inverted microscope (Olympus, IX71) coupled to a digital camera (Olympus DP80), using an […] (LCPlanFI 20×/0.40 Ph1). CellSens standard software (Olympus) was used for image acquisition. During the drug treatment assay, inhibitors (PD98059, BAPTA-AM, and AlP II) were added 30 min prior to TP4, and cell viability was determined at indicated time-points. Transfection was performed using LipofectAMINE™ 3000 (ThermoFisher Scientific), according to the manufacturer's recommendations. Knock-down cells were generated by transducing MB231 cells with pre-synthesized FOSB (or control) shRNA lentiviral particles (Santa Cruz Biotechnology), and selecting puromycin-resistant cells in accordance with the manufacturer's standard protocol. MB231 or M10 cells stably expressing eGFP or mOrange2 were generated through transfection with peGFP-puromycin or pmOrange2-C1 plasmid, followed by puromycin (5 μg mL^−1) or G418 (500 μg mL^−1) selection as described above.
(§2) Cell viability was quantitatively analyzed using the CellTiter-Glo® Luminescent Cell Viability Assay kit (ATP assay) and CellTiter 96® AQueous Non-Radioactive Cell Proliferation Assay kit (MTS assay) (Promega) in accordance with the manufacturer's protocol. For MTS assay, 1×10^4 cells were seeded into the wells of a 96-well plate and cultured overnight [5×10^3 M10 cells were seeded and cultured for 48 h to enable sufficient well attachment]. Cells were subsequently treated with different doses of TP4 (2.5-20 μg mL^−1) and harvested at the indicated time-points (3-24 h). Reaction mixtures (20 μL: MTS+PMS, using a ratio 20:1) were directly added to the cells, and the plates were incubated for 3 h at 37° C. Absorbance at 490 nm is directly proportional to the number of living cells in culture and was measured using a photometer (SpectraMax® i3, Molecular Devices). ATP assay was performed as previously described by Ting et al. Lactate dehydrogenase (LDH) assays were performed by quantitatively measuring cell lysis with a Cytotoxicity Detection Kit^PLUS (LDH) (Roche) in accordance with the manufacturer's protocol. The LDH standard was purchased from Cayman Chemical. Briefly, 1×10^4 cells were seeded into the wells of a 96-well plate and cultured overnight. Culture media were replaced with fresh medium containing 1% FBS and cells were subsequently treated with different doses of TP4 (2.5-20 μg mL^−1). Supernatants were harvested at 3 h. […]

MB231 (MDA-MB231) cells = assay: MTS cell viability assay, MB231; assay type: cell-based, human; settings: mean±SD
Description: as §1, §2

[2] = MTS cell viability assay, M10; assay type: cell-based; settings: human, M10 normal human mammary epithelial cells, mean±SD, read-out: Cellular toxicity (cell viability), MTS assay
Description: as §1, §2

## FIHHIIGGLFSAGKAIHRLIRRRRR [TP4, tilapia piscidin 4]
[1]; TP4 2.5 μg/mL, 3 h
  viability at 3 h, 2.5 μg/mL: 105 ± 6.49%
[1]; TP4 2.5 μg/mL, 6 h
  viability at 6 h, 2.5 μg/mL: 98.6 ± 4.42%
[1]; TP4 2.5 μg/mL, 12 h
  viability at 12 h, 2.5 μg/mL: 100 ± 4.74%
[1]; TP4 2.5 μg/mL, 24 h
  viability at 24 h, 2.5 μg/mL: 97.2 ± 5.62%
[1]; TP4 5.0 μg/mL, 3 h
  viability at 3 h, 5 μg/mL: 103 ± 5.88%
[1]; TP4 5.0 μg/mL, 6 h
  viability at 6 h, 5 μg/mL: 96.8 ± 3.43%
[1]; TP4 5.0 μg/mL, 12 h
  viability at 12 h, 5 μg/mL: 93.8 ± 3.81%
[1]; TP4 5.0 μg/mL, 24 h
  viability at 24 h, 5 μg/mL: 92.7 ± 6.58%
[1]; TP4 10.0 μg/mL, 3 h
  viability at 3 h, 10 μg/mL: 102 ± 9.49%
[1]; TP4 10.0 μg/mL, 6 h
  viability at 6 h, 10 μg/mL: 92.9 ± 2.98%
[1]; TP4 10.0 μg/mL, 12 h
  viability at 12 h, 10 μg/mL: 89.6 ± 3.87%
[1]; TP4 10.0 μg/mL, 24 h
  viability at 24 h, 10 μg/mL: 86.1 ± 9.39%
[1]; TP4 15.0 μg/mL, 3 h
  viability at 3 h, 15 μg/mL: 103 ± 9030%
[1]; TP4 15.0 μg/mL, 6 h
  viability at 6 h, 15 μg/mL: 90.8 ± 6.82%
[1]; TP4 15.0 μg/mL, 12 h
  viability at 12 h, 15 μg/mL: 85.9 ± 4.24%
[1]; TP4 15.0 μg/mL, 24 h
  viability at 24 h, 15 μg/mL: 82.2 ± 11.4%
[1]; TP4 20.0 μg/mL, 3 h
  viability at 3 h, 20 μg/mL: 98.6 ± 13%
[1]; TP4 20.0 μg/mL, 6 h
  viability at 6 h, 20 μg/mL: 81 ± 12.3%
[1]; TP4 20.0 μg/mL, 12 h
  viability at 12 h, 20 μg/mL: 80.5 ± 1.58%
[1]; TP4 20.0 μg/mL, 24 h
  viability at 24 h, 20 μg/mL: 72.2 ± 13.5%
MB231 (MDA-MB231) cells; MB231, TP4 2.5 μg/mL, 3 h
  Cellular toxicity (cell viability), MTS assay: 95.34 ± 5.56^a
MB231 (MDA-MB231) cells; MB231, TP4 2.5 μg/mL, 6 h
  Cellular toxicity (cell viability), MTS assay: 95.93 ± 8.86^a
MB231 (MDA-MB231) cells; MB231, TP4 2.5 μg/mL, 12 h
  Cellular toxicity (cell viability), MTS assay: 87.60 ± 12.28^c
MB231 (MDA-MB231) cells; MB231, TP4 2.5 μg/mL, 24 h
  Cellular toxicity (cell viability), MTS assay: 87.01 ± 9.69^c
MB231 (MDA-MB231) cells; MB231, TP4 5.0 μg/mL, 3 h
  Cellular toxicity (cell viability), MTS assay: 90.55 ± 10.57^a
MB231 (MDA-MB231) cells; MB231, TP4 5.0 μg/mL, 6 h
  Cellular toxicity (cell viability), MTS assay: 82.30 ± 6.40^d
MB231 (MDA-MB231) cells; MB231, TP4 5.0 μg/mL, 12 h
  Cellular toxicity (cell viability), MTS assay: 79.00 ± 9.48^d
MB231 (MDA-MB231) cells; MB231, TP4 5.0 μg/mL, 24 h
  Cellular toxicity (cell viability), MTS assay: 71.69 ± 6.84^d
MB231 (MDA-MB231) cells; MB231, TP4 10.0 μg/mL, 3 h
  Cellular toxicity (cell viability), MTS assay: 75.01 ± 11.29^d
MB231 (MDA-MB231) cells; MB231, TP4 10.0 μg/mL, 6 h
  Cellular toxicity (cell viability), MTS assay: 65.28 ± 6.61^d
MB231 (MDA-MB231) cells; MB231, TP4 10.0 μg/mL, 12 h
  Cellular toxicity (cell viability), MTS assay: 61.63 ± 11.38^d
MB231 (MDA-MB231) cells; MB231, TP4 10.0 μg/mL, 24 h
  Cellular toxicity (cell viability), MTS assay: 57.98 ± 6.62^d
MB231 (MDA-MB231) cells; MB231, TP4 15.0 μg/mL, 3 h
  Cellular toxicity (cell viability), MTS assay: 52.48 ± 11.16^d
MB231 (MDA-MB231) cells; MB231, TP4 15.0 μg/mL, 6 h
  Cellular toxicity (cell viability), MTS assay: 42.59 ± 10.14^d
MB231 (MDA-MB231) cells; MB231, TP4 15.0 μg/mL, 12 h
  Cellular toxicity (cell viability), MTS assay: 38.31 ± 7.26^d
MB231 (MDA-MB231) cells; MB231, TP4 15.0 μg/mL, 24 h
  Cellular toxicity (cell viability), MTS assay: 29.78 ± 4.79^d
MB231 (MDA-MB231) cells; MB231, TP4 20.0 μg/mL, 3 h
  Cellular toxicity (cell viability), MTS assay: 30.57 ± 4.64^d
MB231 (MDA-MB231) cells; MB231, TP4 20.0 μg/mL, 6 h
  Cellular toxicity (cell viability), MTS assay: 26.65 ± 7.16^d
MB231 (MDA-MB231) cells; MB231, TP4 20.0 μg/mL, 12 h
  Cellular toxicity (cell viability), MTS assay: 19.31 ± 5.73^d
MB231 (MDA-MB231) cells; MB231, TP4 20.0 μg/mL, 24 h
  Cellular toxicity (cell viability), MTS assay: 16.19 ± 4.15^d
[2]; M10, TP4 2.5 μg/mL, 3 h
  viability at 3 h, 2.5 μg/mL: 101 ± 4.23%
[2]; M10, TP4 2.5 μg/mL, 6 h
  viability at 6 h, 2.5 μg/mL: 94.8 ± 7.52%
[2]; M10, TP4 2.5 μg/mL, 12 h
  viability at 12 h, 2.5 μg/mL: 96 ± 5.66%
[2]; M10, TP4 2.5 μg/mL, 24 h
  viability at 24 h, 2.5 μg/mL: 94 ± 3.81%
[2]; M10, TP4 5.0 μg/mL, 3 h
  viability at 3 h, 5 μg/mL: 97.1 ± 4.9%
[2]; M10, TP4 5.0 μg/mL, 6 h
  viability at 6 h, 5 μg/mL: 92 ± 5.12%
[2]; M10, TP4 5.0 μg/mL, 12 h
  viability at 12 h, 5 μg/mL: 92.6 ± 4.99%
[2]; M10, TP4 5.0 μg/mL, 24 h
  viability at 24 h, 5 μg/mL: 91.2 ± 3.99%
[2]; M10, TP4 10.0 μg/mL, 3 h
  viability at 3 h, 10 μg/mL: 90.8 ± 4.76%
[2]; M10, TP4 10.0 μg/mL, 6 h
  viability at 6 h, 10 μg/mL: 84 ± 7.47%
[2]; M10, TP4 10.0 μg/mL, 12 h
  viability at 12 h, 10 μg/mL: 83.8 ± 4.27%
[2]; M10, TP4 10.0 μg/mL, 24 h
  viability at 24 h, 10 μg/mL: 80.7 ± 5.72%
[2]; M10, TP4 15.0 μg/mL, 3 h
  viability at 3 h, 15 μg/mL: 84.8 ± 5.83%
[2]; M10, TP4 15.0 μg/mL, 6 h
  viability at 6 h, 15 μg/mL: 78.9 ± 5.57%
[2]; M10, TP4 15.0 μg/mL, 12 h
  viability at 12 h, 15 μg/mL: 65.5 ± 6.68%
[2]; M10, TP4 15.0 μg/mL, 24 h
  viability at 24 h, 15 μg/mL: 58.4 ± 6.8%
[2]; M10, TP4 20.0 μg/mL, 3 h
  viability at 3 h, 20 μg/mL: 67.9 ± 5.16%
[2]; M10, TP4 20.0 μg/mL, 6 h
  viability at 6 h, 20 μg/mL: 60.3 ± 4.97%
[2]; M10, TP4 20.0 μg/mL, 12 h
  viability at 12 h, 20 μg/mL: 47.2 ± 8.42%
[2]; M10, TP4 20.0 μg/mL, 24 h
  viability at 24 h, 20 μg/mL: 44 ± 4.5%
